In paper PMC12406203 (Journal of Medicinal Chemistry, 2025):
Values joined by “and” are separate entries in the source; they are usually repeats but may differ in a detail not shown here. Identical values can stand only once.

How the values were obtained:
hAChE [1] = target: hAChE (Homo sapiens, UniProt P22303)
Experimental: The inhibitory potencies of the compounds against the ChEs were determined using the method of Ellman. […] The final content of DMSO was always 1% [v/v]. […] The initial velocities in the presence (v i ) and absence (v 0) of the test compounds were calculated. The inhibitory potencies were expressed as the residual activities, according to RA = (v i – b)/(v 0 – b), where b is the blank value using phosphate buffer without ChEs. For IC50 determinations, at least seven different concentrations for each compound were used. The IC50 values were obtained by plotting the residual ChE activities against the applied inhibitor concentrations, with the experimental data fitted to a four-parameter logistic function (GraphPad Prism 10.0).

hAChE [2] = tested on: hAChE
human p38α MAPK = human p38α MAPK (Homo sapiens, UniProt Q16539); test: biochemical
[3] = tested on: ABL1(T315I)-phosphorylated
PBMCs = test: Cytokine release from PHA-stimulated PBMCs; type: cell-based, human
Experimental: Human PBMCs from healthy donors were isolated from heparinized blood by density gradient centrifugation with Ficoll-Paque. The isolated cells were washed twice with PBS, resuspended in RPMI 1640 medium (Sigma-Aldrich, St. Louis, MO, USA) supplemented with 10% heat-inactivated fetal bovine serum (Gibco), 2 mM L-glutamine (Sigma-Aldrich), 100 U/mL penicillin (Sigma-Aldrich), and 100 μg/mL streptomycin (Sigma-Aldrich), and used in the assays.
Peripheral blood mononuclear cells were seeded (500,000 cells/well) in 24-well plates in 500 μL of growth medium and treated with compounds 94, 95, and neflamapimod (1, 2.5, and 5 μM) in the presence or absence of PHA (1 μg/mL) or the corresponding vehicle (0.1% DMSO). Cell-free supernatants were collected after 18 h of incubation (37 °C, 5% CO2) and stored at −80 °C until tested. Cytokine production was determined with BD Cytometric Bead Array human inflammatory cytokines kit (BD Bioscience) on an Attune NxT flow cytometer (Thermo Fisher Scientific, Waltham, MA, USA). Standard curves were generated using recombinant cytokines contained in the kit. The data were analyzed using the FlowJo (Tree Star, Inc., Ashland, OR, USA) and Prism (GraphPad Prism 6.0, GraphPad Software) software.

[4] = Pharmacokinetic study in mice
Experimental: In this study, male CD-1 mice weighing 27–34 g housed in conditions of constant temperature with a 12:12 h light-dark cycle with free access to food and water were used. Both tested and reference compounds were suspended in 1% Tween in water for injection (Polpharma, Poland) and administered intraperitoneally (i.p.). The mice were sacrificed by decapitation under isoflurane anesthesia at different time points following compound administration. Brains were harvested at the same time points. Blood was allowed to clot at room temperature for 20 min, and serum was separated by centrifugation at 8 000g (Eppendorf MiniSpin centrifuge, Germany) for 10 min. All samples were stored at −80 °C until analysis.
The analytical workflow employed a Sciex QTRAP 4500 triple quadrupole mass spectrometer interfaced with an Exion LC AC HPLC system (Danaher Corporation, USA). Chromatographic separation was achieved on an XBridge C18 column (3 × 50 mm, 5 μm; Waters, USA), utilizing a mobile phase composed of acetonitrile and water both containing 0.1% formic acid. The column temperature was maintained at 40 °C, and a gradient elution protocol (Table S10) was implemented to ensure optimal analyte resolution and retention times. Mass spectrometric detection was conducted in unit resolution mode, with ion transitions specified in Table S11. […] Valsartan served as the internal standard and was monitored at m/z 436 → 207 (collision energy = 42 eV). Positive electrospray ionization (ESI+) was employed to enhance detection sensitivity. Ion path parameters (Table S11) were optimized via direct infusion of analyte solutions (7 μL/min) using a syringe pump. The optimized source conditions included an ion spray voltage of 5500 V, a source temperature of 450 °C, curtain gas pressure at 20 psi, and medium collision gas pressure. […] No significant matrix effects or stability concerns were observed during routine sample analysis. Data acquisition and processing were carried out using Analyst software version 1.7.
Serial dilutions were performed to generate working solutions ranging from 0.01 to 20 μg/mL, corresponding to final calibration concentrations of 0.001–2 μg/mL. For calibration curve construction, 5 μL of each working solution was spiked into 45 μL of the relevant biological matrix (serum or brain homogenate) and vortexed for 10 s. Sample preparation involved protein precipitation, in a 1:3 (v/v) ratio, using acetonitrile containing 0.1% formic acid and the internal standard. The mixtures were agitated for 10 min using an IKA Vibrax VXR shaker (Germany), followed by centrifugation at 8000 × g for 5 min (Eppendorf miniSpin, Germany). The resulting supernatants were transferred to chromatographic vials for analysis.
Brain tissues were homogenized in distilled water at a 1:4 (w/v) ratio using an ULTRA-TURRAX T10 basic homogenizer (IKA, Germany). Aliquots of brain homogenate or serum (50 μL) were subjected to protein precipitation in a 1:3 (v/v) ratio with acetonitrile containing 0.1% formic acid and the internal standard. The mixtures were agitated for 10 min using an IKA Vibrax VXR shaker (Germany), followed by centrifugation at 8000 × g for 5 min (Eppendorf miniSpin, Germany). The resulting supernatants were directly transferred to chromatographic vials for analysis. In cases where analyte concentrations in serum exceeded 20 μg/mL, samples were diluted with blank matrix prior to the deproteinization step. The autosampler was maintained at 15 °C, and a 1 μL aliquot was injected onto the analytical column.
Pharmacokinetic parameters were estimated using the noncompartmental analysis (NCA). The maximum concentration (C max) and the time to reach maximum concentration (t max) in serum and brain were obtained directly from the concentration versus time data.

[5] = male, CD-1, mouse, brain, ip, 10 mg/kg
[6] = male, CD-1, mouse, serum, ip, 10 mg/kg

Chain of hAChE (Homo sapiens, UniProt P22303) (P22303 32-614): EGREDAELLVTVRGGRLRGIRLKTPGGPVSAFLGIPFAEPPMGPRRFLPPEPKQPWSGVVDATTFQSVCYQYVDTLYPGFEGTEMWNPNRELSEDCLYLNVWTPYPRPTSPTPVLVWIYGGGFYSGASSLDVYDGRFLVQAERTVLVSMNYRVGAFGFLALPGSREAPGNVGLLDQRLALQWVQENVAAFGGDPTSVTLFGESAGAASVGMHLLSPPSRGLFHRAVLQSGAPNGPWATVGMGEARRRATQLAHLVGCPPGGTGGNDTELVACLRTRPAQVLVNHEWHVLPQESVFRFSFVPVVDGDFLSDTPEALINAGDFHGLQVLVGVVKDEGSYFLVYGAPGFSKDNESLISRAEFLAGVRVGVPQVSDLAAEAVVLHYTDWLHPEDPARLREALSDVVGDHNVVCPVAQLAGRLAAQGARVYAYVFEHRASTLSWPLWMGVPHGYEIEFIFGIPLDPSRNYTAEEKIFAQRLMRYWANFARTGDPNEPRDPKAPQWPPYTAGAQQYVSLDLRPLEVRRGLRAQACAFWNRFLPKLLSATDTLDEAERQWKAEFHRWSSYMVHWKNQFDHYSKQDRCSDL
Chain of human p38α MAPK (Q16539 whole entry): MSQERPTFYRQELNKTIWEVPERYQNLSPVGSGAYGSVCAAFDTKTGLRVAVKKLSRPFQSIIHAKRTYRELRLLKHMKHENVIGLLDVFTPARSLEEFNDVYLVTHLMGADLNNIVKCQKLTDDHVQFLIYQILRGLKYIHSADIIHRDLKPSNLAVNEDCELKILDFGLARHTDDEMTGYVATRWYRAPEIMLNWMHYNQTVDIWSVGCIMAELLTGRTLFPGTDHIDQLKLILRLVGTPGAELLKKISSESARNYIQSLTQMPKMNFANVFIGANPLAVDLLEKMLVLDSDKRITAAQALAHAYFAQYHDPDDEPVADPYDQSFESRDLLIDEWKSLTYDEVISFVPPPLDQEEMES

SMILES: CN(C)CCNC(=O)c1cc2c(cnn2CC2CCCCC2)cc1Cc1ccc(F)cc1F [Compound 95, 1-(Cyclohexylmethyl)-5-(2,4-difluorobenzyl)-N-(2-(dimethylamino)ethyl)-1H-indazole-6-carboxamide]
- RA @ 1000nM (VEGFR2): 100%
- RA @ 10000nM (VEGFR2): 100%
- RA @ 1000nM (ADCK3): 100%
- RA @ 10000nM (ADCK3): 81%
- RA @ 1000nM (TIE2): 90%
- RA @ 10000nM (TIE2): 100%
- AChE inhibition (hAChE [1]; at a concentration of 100 μM): did not inhibit AChE
- hAChE RA at 100 μM (hAChE [1]; residual activity at 100 μM, mean ± SD, one experiment in triplicate): 53.4% and 53 ± 1% and 53.4 ± 0.8%
- RA @ 1000nM (PCTK1): 87%
- RA @ 10000nM (PCTK1): 79%
- RA @ 1000nM (PRKCE): 79%
- RA @ 10000nM (PRKCE): 76%
- RA at 100 µM (hAChE [2]): 53 ± 1%
- RA @ 1000nM (p38α): 6.7%
- RA @ 10000nM (p38α): 0.1%
- RA @ 1000nM (CDK7): 88%
- RA @ 10000nM (CDK7): 77%
- IC50 (human p38α MAPK; p38α MAPK IC50, IC50 expressed as concentration in ng/mL): 191 nM
- IC50 (human p38α MAPK; p38α MAPK IC50 ± SEM, two independent experiments, each in triplicate): 191 ± 21 nM
- RA @ 1000nM (RIOK2): 88%
- RA @ 10000nM (RIOK2): 81%
- RA @ 1000nM (TRKA): 100%
- RA @ 10000nM (TRKA): 92%
- RA @ 1000nM (ALK): 62%
- RA @ 10000nM (ALK): 92%
- RA @ 1000nM (RET): 100%
- RA @ 10000nM (RET): 100%
- RA @ 1000nM (FLT3): 100%
- RA @ 10000nM (FLT3): 100%
- RA @ 1000nM (CDK11): 92%
- RA @ 10000nM (CDK11): 100%
- RA @ 1000nM (FAK): 92%
- RA @ 10000nM (FAK): 94%
- RA @ 1000nM [3]: 72%
- RA @ 10000nM [3]: 91%
- RA @ 1000nM (MEK2): 95%
- RA @ 10000nM (MEK2): 100%
- RA @ 1000nM (BTK): 100%
- RA @ 10000nM (BTK): 100%
- RA @ 1000nM (IGF1R): 100%
- RA @ 10000nM (IGF1R): 93%
- IC50 (p38α MAPK): 191 nM and 87 ng/mL
- RA @ 1000nM (MKNK2): 81%
- RA @ 10000nM (MKNK2): 67%
- RA @ 1000nM (BRAF(V600E)): 98%
- RA @ 10000nM (BRAF(V600E)): 100%
- RA @ 1000nM (ACVR1B): 100%
- RA @ 10000nM (ACVR1B): 100%
- production of IL-12 (PBMCs): increased, albeit at a low level
- production of pro-inflammatory cytokines IL-8, IL-1β, IL-6, IL-10, and TNF-α (PBMCs; 1, 2.5, and 5 μM, 18 h): significantly inhibited
- AUC0‑∞ ([4]; brain, 10 mg/kg i.p., mice): 51082.15 ng·min/mL(g)
- AUC0–t ([4]; brain, 10 mg/kg i.p., mice): 49811.92 ng·min/mL(g)
- t0.5λz ([4]; brain, 10 mg/kg i.p., mice): 89.51 min
- Cmax [4, 5]: 343 ng/g
- MRT [4, 5]: 2.14 h
- Tmax [4, 5]: 0.25 h
- k el [4, 5]: 0.000128 s⁻¹
- Kp ([4]; male, CD-1, mouse, brain/serum, ip, 10 mg/kg): 0.83
- AUC [4, 6]: 1030 ng·h/mL
- AUC(0-t) [4, 6]: 999 ng·h/mL
- CL/F [4, 6]: 160 mL/min/kg
- Cmax [4, 6]: 617 ng/mL
- MRT [4, 6]: 1.97 h
- Tmax [4, 6]: 0.25 h
- Vd/F [4, 6]: 23.4 L/kg
- k el [4, 6]: 0.000115 s⁻¹
- t0.5λz ([4]; serum, 10 mg/kg i.p., mice): 100.15 min
- RA @ 1000nM (PAK4): 100%
- RA @ 10000nM (PAK4): 88%
- RA @ 1000nM (LKB1): 100%
- RA @ 10000nM (LKB1): 86%
- RA @ 1000nM (JNK1): 100%
- RA @ 10000nM (JNK1): 27%
- RA @ 1000nM (AKT2): 100%
- RA @ 10000nM (AKT2): 88%
- RA @ 1000nM (MEK1): 98%
- RA @ 10000nM (MEK1): 100%
- RA @ 1000nM (PKACα): 100%
- RA @ 10000nM (PKACα): 94%
- Pe ± SEM (BBB-PAMPA, pH 7.4, n = 2 novel compounds, n = 3 reference drugs): 13.2 ± 1.1 ×10–6 cm/s
- CNS (+/–) (predicted BBB permeation from Pe): CNS+ (CNS+ indicates high predicted BBB permeation [Pe (×10–6 cm/s) > 4.0])
- RA @ 1000nM (EGFR(L858R)): 100%
- RA @ 10000nM (EGFR(L858R)): 100%
- RA @ 1000nM (MAP3K4): 100%
- RA @ 10000nM (MAP3K4): 60%
- RA @ 1000nM (INSR): 84%
- RA @ 10000nM (INSR): 81%
- RA @ 1000nM (p38β): 84%
- RA @ 10000nM (p38β): 18%
- RA @ 1000nM (MAPKAPK2): 100%
- RA @ 10000nM (MAPKAPK2): 100%
